Data as given in patent US12150777B2, “Treatment of depression” (The Board of Trustees of the Leland Stanford Junior …, priority 2018, dated 2024).
Read-outs that look alike come from different tables or passages of the source.

Experiments:
[1] = for endpoint symptom difference Cohen's d / remission NNT: below median iI-cI activation
Description: fMRI task and acquisition parameters: The emotional conflict task is a well-characterized paradigm^17,18, that induces emotional conflict through pairing fearful and happy faces with overlaid congruent or incongruent emotion words (participants identify facial expression using a keypad).
fMRI preprocessing and first-level modeling: For the emotional conflict task, the contrasts of interest were incongruent versus congruent trials (conflict) and post-incongruent incongruent trials versus post-congruent incongruent trials (an established measure of conflict regulation)^11,13,17,18.
Statistical analyses: All moderation analyses were conducted under an intention-to-treat framework, incorporating all randomized patients after removing those with excessive head motion or low task accuracy. As such, we employed linear mixed models both for the voxelwise neuroimaging data, as well as follow-up analyses on extracted brain signals, while fully controlling for any potential differences due to site of acquisition. Whole-brain voxelwise correction for multiple comparisons was performed at p<0.05 based on the false discovery rate.
Emotional conflict task: This well-characterized paradigm assesses both emotional conflict and emotional conflict regulation^3,4. Each trial involved presentation of an emotional face with either a fearful or happy expression, drawn from the set of Ekman & Friesen^5, with an overlaid emotion word (“FEAR” or “HAPPY”). Participants were instructed to identify the facial emotion with a key press, while trying to ignore the emotion word. The task consisted of 148 trials, with stimuli presented for 1000 milliseconds (ms) in a fast event-related design. Interstimulus intervals were 3000-5000 ms in a pseudo-randomized order counterbalanced for facial expression, gender, word, and response button. Stimuli were either congruent (e.g. fearful face with “FEAR”) or incongruent (e.g. fearful face with “HAPPY”), and stimuli were furthermore balanced to achieve an equal fraction of current and prior trial congruency, while ensuring no direct stimulus repetitions. Prior to performance of the task during neuroimaging, all participants underwent a practice version to ensure task proficiency was reached (minimum 80% accuracy) and the task instructions were understood. The neuroimaging task lasted 13 minutes and 14 seconds.
We constrained analyses to a search space defined by a whole-brain mask constructed from: a) a 30% probabilistic voxelwise threshold derived from spatially normalized, segmented binary gray matter images from an independent sample of healthy comparison participants^9,10; and b) a conjunction map of adequate signal coverage across study scanners constructed by concatenating the binarized individual-level average map of all task experimental conditions within participants acquired at each scanner, thresholding at a minimum of 50% coverage within each scanner sample, and then conjoining these maps across all scanners. Thus, the final search space was a function of both adequate signal coverage across all study scanners as well as a probabilistic assignment to the brain's gray matter. At each voxel within this search space, the moderating effect of baseline brain activation (mean-centered) was examined using a longitudinal linear mixed model implemented in the nlme R package.^14 Modeled effects included a random and fixed intercept, fixed effects of time, time×treatment arm, 4 mean-centered, dummy-coded scanner variables corresponding to: a) Columbia University scanner 1 vs. UT Southwestern scanner; b) Columbia University scanner 2 vs. UT Southwestern scanner; c) Massachusetts General Hospital scanner vs. UT Southwestern scanner; and d) University of Michigan scanner vs. UT Southwestern scanner, treatment arm×time×brain activation, and all model variables in interaction with each of the 4 site variables.

[2] = Moderation of outcome by left amygdala PPI task-related connectivity; format: in vivo, human
Experimental: Context-dependent connectivity analyses were conducted using the generalized PPI toolbox^1. A “seed” region was defined volumetrically using an anatomical region of interest mask of the left and right amygdala. Each amygdala mask was then deformed from Montereal Neurological Institute standard space into the participant's native anatomical space using the inverse warp parameter determined during spatial normalization of the preprocessing stage. […] The interaction of the time series of behavioral parameters of interest, i.e. the task conditions utilized in the first-level activation analysis, with the deconcolved “neuronal” time series were calculated for each task condition of interest, thus producing a fully specified statistical model modeling the interaction of each task condition with the observed BOLD time series (a psychophysiological interaction). […] The first-level beta weights for the contrasts of conditions of interest were then calculated on the individual level, and individual-level generalized PPI beta maps were then carried to a second level linear mixed model analysis conducted in R using the fmri^2 and nlme^3 packages to assess voxelwise task-dependent connectivity moderation effects (as in the activation analyses).

[3] = EMBARC randomized trial, sertraline versus placebo, HAMD17 outcome; format: in vivo, human; settings: all patients
Description: Assessments and treatment protocol: The primary clinical outcome was total scores on the Hamilton Rating Scale for Depression 17-item (HAMD17)^24,25, administered at each study visit (baseline, week 1, week 2, week 3, week 4, week 6, and week 8).
Key eligibility for the study included being 18-65 years old, having major depression as a primary diagnosis by the Structured Clinical Interview for DSM-IV Axis I Disorders^1, at least moderate depression severity with a score≥14 on the Quick Inventory of Depressive Symptomatology-Self Report (QIDS-SR) at screening and randomization, a major depressive episode beginning before age 30, either a chronic recurrent episode (duration≥2 years) or recurrent MDD (at least 2 lifetime episodes), and no antidepressant failure during the current episode. […] In addition, 40 healthy individuals who were medically and psychiatrically healthy, were recruited across the four sites, and assessed in a similar manner as the patients. […]

CN[C@H]1CC[C@@H](c2ccc(Cl)c(Cl)c2)c2ccccc21 [sertraline]
endpoint symptom difference Cohen's d ([1]; anterior insula): 0.53 | remission NNT ([1]; anterior insula): 6.3 | endpoint symptom difference Cohen's d ([1]; dorsal anterior cingulate): 0.79 | remission NNT ([1]; dorsal anterior cingulate): 3 | endpoint symptom difference Cohen's d ([1]; frontopolar cortex): 0.85 | remission NNT ([1]; frontopolar cortex): 2.9 | benefit of sertraline over placebo ([1]; patients in bottom half of emotion-regulation capacity): no benefit | benefit of sertraline over placebo ([1]; patients in bottom quartile of emotional conflict regulatory ability): no benefit | number needed to treat ([1]; patients in top half of emotion-regulation capacity): < 5 | number needed to treat versus placebo ([1]; patients in top quartile of emotional conflict regulatory ability): < 4 | symptom change with sertraline versus placebo ([2]; left amygdala PPI connectivity to dorsal anterior cingulate above median): failed to show any difference | symptom change with sertraline compared to placebo ([2]; left amygdala PPI connectivity to dorsal anterior cingulate below median): steep decline in symptoms | endpoint symptom reduction with sertraline versus placebo, Cohen's d ([3]; HAMD17, linear mixed model, 8 weeks): 0.24 | remission number needed to treat (NNT) ([3]; sertraline versus placebo): 20.1
